The values below come from US20240000811A1, “INOSITOL HEXAKISPHOSPHATE ANALOGUES FOR TREATMENT OF CALCIFICATION ASSOCIATED KIDNEY DISEASES” (INOSITEC AG, priority 2020, published 2024).

Assay [1] in a line: In-solution screening: CaP precipitation and aggregation in artificial renal tubular fluid (RTF). The settings on record: 9 mM phosphate, 8 mM calcium, 4 h, RT. As for the experimental part: An artificial renal tubular fluid (RTF) with a final composition of 0.05 mM oxalate, 0.005 mM sulphate, 408 mM sodium, 424 mM chloride, 0.26 mM potassium, 4 mM magnesium and 0.2 mM citrate in double distilled water was prepared according to a literature report (Fasano, J. M. et al., Kidney Int. 59, 169-178. DOI: 10.1046/j.1523-1755.2001.00477.x, 2001). The solution was filtered with a 0.45-μm syringe filter. Twenty mM Bis-Tris buffer was added to the reported protocol to ensure pH stability throughout experiments and pH was set to 7.2. The artificial RTF was stored at room temperature for up to four months. Stock solutions of 0.25 M phosphate and 1 M calcium were prepared in double distilled water and were stored separately at −20° C.
Twenty-x final concentration phosphate, 20× final concentration calcium and 10× final concentration compound dilutions were prepared in RTF. Assay mixture consisting of 80% RTF, 10% compound dilution, 5% phosphate dilution and 5% calcium dilution was prepared in Eppendorf tubes as follows. RTF (320 μL) was mixed with 20 μL phosphate dilution (final concentration of 9 mM), 40 μL compound dilution and 20 μL calcium dilution (final concentration of 8 mM). The assay mixture was vortexed after adding each component and 380 μL of the mixture were immediately added to 8-well glass bottom slides and incubated for 4 hat RT. CaP precipitation was assessed using a Leica DM 6000B microscope (Leica Microsystems, Wetzlar, Germany) in brightfield mode. For quantification 3 wells/condition with 3-4 images/well were imaged with a 40× objective. The total area covered with CaP deposits in percentage of the field of view and the mean size of CaP aggregates were determined.
In a first step, the influence of selected IP6 analogues (FIG. 3) on CaP precipitation and growth was assessed in vitro using artificial renal tubular fluid (RTF) (Table 1). In a previous study, the inventors investigated CaP protein particle formation in serum. However, an important difference to cardiovascular calcification lies in the extremely low protein content of the renal tubular fluid vs. the high abundance of proteins in blood, which can stabilize amorphous particles. Two cut-offs were chosen for assessing efficacy. First, complete inhibition was defined as a >90% reduction of detected CaP precipitates compared to the control sample without compound.

Assay [2] has as its system RPTEC/TERT 1 human proximal tubule cells. Nature of the assay: Imaging assay: CaP adhesion/deposition and cellular changes on RPTEC monolayers treated with 5/7 mM Ca/P. It counts as cell-based. The settings on record: 7 mM phosphate, 5 mM calcium, 24 h. How it is done: RPTEC/TERT 1 human proximal tubule cells (RPTEC) were cultured in T75 tissue culture flasks using ProxUp basal medium mixed with ProxUp supplements at 37° C. and 5% CO2 according to manufacturer's recommendations. Cells were used up to passage 30 and regularly tested for Mycoplasma infections. For experiments, RPTEC were cultured in 24-well plates at a seeding density of 150′000 cells/cm^2. Cell viability assessment and cell counting before seeding was performed using an automated cell counter (BioRad TC 20, Hercules, CA, USA).
For the comparison of selected IP6 analogues, ProxUp basal medium was prepared with the selected inhibitor and added to each well. Then, CaP precipitation was induced by direct addition of first, phosphate and second, calcium. Final concentrations of 7 mM phosphate and 5 mM calcium were used. Cells were incubated for 24 h at 37° C. and 5% CO2. Spiked medium was removed, and cells were washed twice with PBS before staining.
For staining, ProxUp basal medium was mixed with calcein (500 nM final concentration), EthD (6 μM final concentration), CellMask stain ([…]) and Hoechst 33342. Staining mixture was added to RPTEC and cells were incubated for 30 min in the dark at 37° C. and 5% CO2. Staining solution was removed, cells were washed with PBS once and ProxUp basal medium was added. Cells were immediately imaged after staining. Images were obtained by epifluorescence microscopy at 37° C., using a Leica CTR6000 microscope. For quantification 3 wells/condition were prepared and 3 images/well were taken. For preliminary adhesion experiments images were taken with a 10× objective, for the imaging assay 20× objective images were taken.
Multichannel images were saved as individual channel images in 8-bit tiff format. For analysis Hoechst channel images were thresholded using the triangle threshold. Touching nuclei of the binary image were further segmented using the watershed algorithm with the distance transform of the binary image as input and local maxima thereof as seeds.
For EthD channel images, high level of background noise was observed, potentially as a result of fluorescence of the CellMask stain bleeding through. […] A fixed minimum threshold was set at 60. Watershed segmentation similar to the Hoechst channel was performed to segment touching objects. For the calcein channel images adaptive thresholding by triangle thresholding achieved good detection of CaP deposits, which was validated by visual comparison to brightfield channel images. For compound experiments, an additional upper threshold was set to the minimum threshold of the pos.ctrl images for the respective experiment. Thereby an overly insensitive threshold in images with a high amount of CaP deposition was circumvented. The sum of foreground pixels of the binary image was used to calculate the total area of CaP deposits. The skimage label algorithm was used to label touching foreground regions.
To segment images to single cells the CellMask channel image was first binarized by adaptive thresholding, using a blocksize of 35, followed by median filtering. Binary erosion was performed to shrink the outlines. A version of watershed algorithm was used to segment the whole image into single cells. To this end, the distance transform of the binary erosion image was used as input image and seeds were set to the local maxima of the Hoechst channel image. While this protocol allowed for an approximation of single cell morphology, further improvements of both analytical and experimental staining procedure would be necessary to achieve more accurate results.
Additionally, texture features of calcein and CellMask channel images were extracted. Grey level co-occurrence matrices were calculated using one set offset of 5 pixel and an angle of 90°. Here, the use of larger offsets could improve the detection of changes in large-scale features, e.g. CaP clustering sites. […]

Regarding `COCCOCCOCCOCCOCCOCCOCCOCCOCCOCCOCCO[C@@H]1[C@@H](OP(=O)(O)O)[C@H](OP(=O)(O)O)[C@@H](OP(=O)(O)O)[C@@H](OP(=O)(O)O)[C@H]1OP(=O)(O)O` [OEG11-IP5], in assay [1], the “aggregation inhibitory concentration (>50% reduction of mean size of aggregates vs control)” value stood at 300 nM. Also, the “concentration achieving complete inhibition of CaP adhesion” value in assay [2] turned out to be 50 µM. With `O=P(O)(O)OC1[C@@H](OP(=O)(O)O)[C@H](OP(=O)(O)O)C(O)[C@H](OP(=O)(O)O)[C@H]1OP(=O)(O)O` (stereo partly drawn) [IP5, myo-inositol pentakisphosphate, reference compound], the “concentration at which CaP precipitation was promoted” value in assay [1] was determined as 30 µM. Regarding `COCCOCCO[C@@H]1[C@@H](OP(=O)(O)O)[C@H](OP(=O)(O)O)[C@@H](OP(=O)(O)O)[C@@H](OP(=O)(O)O)[C@H]1OP(=O)(O)O` [OEG2-IP5], in assay [1], the “concentration for complete inhibition of CaP precipitation (>90% reduction of detected CaP precipitates vs control)” value stood at 30 µM and the “concentration for inhibition of CaP aggregation (>50% reduction of mean size of aggregates vs control)” value is 1 µM. For the same molecule, the “concentration achieving complete inhibition of CaP adhesion” value in assay [2] amounted to 50 µM. As to `O=S(=O)(O)OC1C(OS(=O)(=O)O)C(OS(=O)(=O)O)C(OS(=O)(=O)O)C(OS(=O)(=O)O)C1OS(=O)(=O)O` (stereo not drawn) [IS6, myo-inositol hexasulfate, reference compound], the “effect on CaP precipitation / crystallization (in words)” value in assay [1] is “weak inhibitory properties”. With “cyclohexane hexacarboxylic acid [IC6, reference compound]”, the “effect on CaP precipitation / crystallization (in words)” value in assay [1] was “weak inhibitory properties”. For `O=P(O)(O)O[C@H]1[C@H](OP(=O)(O)O)[C@@H](OP(=O)(O)O)[C@H](OP(=O)(O)O)[C@@H](OP(=O)(O)O)[C@H]1OP(=O)(O)O` [IP6, Phytic acid, reference compound], the “concentration at which CaP precipitation was promoted” value in assay [1] worked out at 10 µM.
